Consider 3 molecules from EP1228058B1, “BENZOPYRANYL GUANIDINE DERIVATIVES, PROCESS FOR PREPARATION THEREOF, AND PHARMACEUTICAL COMPOSITIONS CONTAINING THEM” (Dongbu Hannong Chemical Co., Ltd., priority 1999, dated 2001).

Molecules are shown by their SMILES. pIC50: −log10 of the molar value. A value given as a limit tells only on which side of the number the result lay.

The subject of data set [1] is ischemic heart models of beagle dogs. Briefly: Heart protective (anti-ischemic) activity in ischemic heart models of anesthetized beagle dogs. The data set is classed as in vivo. The note with it: total dose 2 mg/kg infused i.v. over 40 min, 90 min occlusion, 5 h reperfusion. The procedure:
In order to determine whether the compounds of the formula 1 are protective for the ischemic hearts of larger animals, experiments determining the anti-ischemic effects of the compounds on beagle dogs were conducted as follows. The experiments on beagle dogs followed the method of Grover et al.' (G. J. Grover et al., J. Cardiovasc. Pharmacol. 25, 40 (1995)).
After being anesthetized by an intravenous injection of pentobarbital at a dose of 35 mg/kg, male beagle dogs (8-12 kg) were further infused with pentobarbital sodium at a dose of 3-4 mg/kg through the right cephalic vein throughout the experiments, so as to keep the anesthesia constant. […] The heart rate was measured by a tachometer, such as that manufactured by Gould Inc., OH, U.S.A., identified as Biotachometer. In addition, all of the changes occurring during the experiment were continuously recorded through the Gould 2000 chart recorder, manufactured by Gould Inc.
The fifth intercostal space was incised to open the thorax and the LAD was separated from its surrounding tissues. […] The LAD part upstream of the silk ligature was isolated from adjacent tissues and the blood flow was measured quantitatively. […] Using polygraph such as Grass Model 7E, the electrocardiogram was measured and read (Lead II). […]

Data set [2] relates to ischemic heart models of rats. Briefly: Heart protective (anti-ischemic) activity in ischemic heart models of anesthetized rats. The note with it: 45 min occlusion, 90 min reperfusion. The class given is in vivo. The procedure:
Male rats (350-450 g, obtained from the Experimental Animal Team of the Korea Research Institute of Chemical Technology) were anesthetized by the intraperitoneal injection of pentobarbital at a dose of 75 mg/kg. After trachetomy, the rats were rendered to respire artificially at a rate of 60/min with a stroke volume of 10 ml/kg. Cannulars were inserted into the fermoral vein and the fermoral artery and used for drug administration and blood pressure measurement, respectively.
In the ischemic myocardium damage models, the body temperature has an important influence on the results. To avoid the change in the body temperature, a body temperature measuring probe was inserted into the rectum of each rat and the body temperature was constantly kept at 37 °C with the aid of a homeothermic blanket control unit.
Afterwards, during testing, a continuous measurement was made of the mean arterial blood pressures and heart rates from the rats. For the measurement of the blood pressure, a pressure transducer, such as that manufactured by Grass Ins., MA, U.S.A., identified as Model Statham P23XL, was used. The heart rate was measured by a tachometer, such as that manufactured by Gould Inc., OH, U.S.A., identified as Biotachometer. In addition, all of the changes occurring were continuously recorded through the Gould 2000 chart recorder, manufactured by Gould Inc.
The left coronary artery was occluded according to the Selye H. method as follows. The rats underwent a left thoracotomy operation for partial opening of the chest and the right-side chest was pressurized by the middle finger of the left hand to push the heart out. Immediately after the left anterior descending coronary artery hereinafter referred to as (LAD) was carefully stitched using a suture needle with 5-0 silk ligature, the heart was then repositioned in the thoracic cavity while both ends of the ligature were situated outside. The opposite ligature ends were passed through a PE tube (PE100, 2.5 cm) and allowed to stand loose for 20 min for stabilization. Via the cannula inserted into the femoral vein, vehicles or drugs were administered into the rats which were rendered to stand for 30 min in order to sufficiently elicit the efficacies of the drugs. BMS-180448 was used as a control drug and the i.v.administration dose was 0.3 mg/kg for all test drugs of interest and the control drug.
Next, the PE tube which had the doubled strands of the ligature passed therethrough was pushed toward the heart and then, set upright by tightly pulling end regions of the ligature with a hemostatic pincette while pressing the coronary artery. The PE tube was allowed to stand for 45 min for the occlusion of the coronary artery, followed by the removal of the hemostatic pincette and then, by the reperfusion for 90 min.
After the reocclusion of the coronary artery in accordance with the above procedure, the rats were administered with 2 ml of a 1% Evans blue through an intravenous route. Subsequently, an excess of pentobarbital was intravenously injected to kill the rats, after which the heart was removed and then, deprived of the right ventricle and both atria. The left ventricle was cut horizontally to the heart apex into 5 or 6 slices which were weighed. From the surface of each slice, images were input with the aid of a Hi-scope into a computer installed with an image analyzing program (Image Pro Plus). From the images input into the computer, the area of the normal blood stream tissue region which appeared blue in a computer monitor and the area which appeared colorless were measured. The percentage of the colorless area to the total area of each slice was calculated and multiplied by the weight of each slice to determine the area at risk (AAR) of each slice. […]

In the next data set the test system is rat aorta. Briefly: Vasodilation effects on isolated blood vessels of rats (methoxamine-constricted aortic rings). The data set is classed as cell-based. The note with it: isolated rat aorta constricted with methoxamine (3 uM); read-out: Vasodilation Activity (in Vitro, rat aorta) (IC50). An excerpt:
Male Sprague-Dawly rats (350-450 g, obtained from the Experimental Animal Team of the Korea Research Institute of Chemical Technology) were knocked unconscious by hitting the occipital region, sacrificed by cervical dislocation, and underwent thoracotomy. After being quickly removed, the thoracic aorta was deprived of the adipose tissue and cut into aortic rings of 3 mm width. The aorta was lightly rubbed with a modified Krebs Henseleit buffer (Physiological Salt Solution, PSS) soaked cotton club to remove the inner epithelial layer therefrom. While being suspended in an organ bath containing a physiological buffer, the vascular tissue was allowed to equilibrate under a resting tension of 2 g and then, stand for 1 hour at 37 °C for stabilization with a supply of a carbogen consisting of 95% O2-5% CO2.
Thereafter, the vascular tissue was constricted with 10^-5 M phenylephrine and washed several times with PSS and this procedure was repeated again to ensure the stable reacivity of vascular smooth muscle to repetitive constriction/dilatation.
In addition, 3x10^-6 M methoxamine was used to induce an intensive constriction in the vascular smooth muscle. When the vasoconstriction induced by the methoxamine reached and maintained a maximum, test compounds and controls were cumulatively added to the organ baths in concentrations of 1, 3, 10 and 30 uM so as to induce vasodilatation. As for the controls, they were Cromakalim and BMS-180448 (the compounds of the chemical formula 2), both known to be the first generation KATP activator with potent vasodilatation and cardioprotection effects.
Following the addition of the drugs, the change in the maximal constriction induced by methoxamine was calculated to plot a concentration-dilation response curve. Through a linear regression analysis, IC50, the drug concentration at which the vascular tissue is 50% dilated, was obtained for each drug.

The nature of data set [3]: Acute oral toxicity test in rats. As to conditions: rat, in vivo, single oral dose in 0.5% methyl cellulose, read-out: lethal dose (LD50) for oral administration. In a few lines: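 Six-week-old SPF SD rats, two per group, received a single oral dose of 1 g/kg suspended in 0.5% methyl cellulose (10 ml/kg). Survivors at the end of observation underwent haematology, serum chemistry, necropsy and histopathology of vital organs with macroscopic lesions.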

For a further data set, the system named is RAW 264.7 cells. The data set can be described thus: Inhibition of LPS-induced NO production (Griess reagent). The data set is classed as cell-based, murine. The note with it: Mus musculus, RAW264.7, 100 uM, 24 hours. The procedure:
Using RPMI1640 media supplemented with 10% fetal bovine serum (FBS), RAW 264.7 cells (obtained from American Type Culture Collection), a murine macrophage cell line, were cultured at 37 °C in a 5% CO2 incubator. The RAW264.7 cells were harvested and cell density was adjusted to 5x10^5/ml with a RPMI medium supplemented with 0.5% FBS and plated at 5x10^4 cells/well to 96-well plates, which were then cultured for 20 hr in a CO2 incubator. After removal of the media, the cells were pre-treated for 1 hour with fresh media containing 33 uM and 100 uM of test compounds. The test compounds were dissolved in DMSO and diluted to respective concentration in the media. In order to minimize DMSO effect on the nitric oxide formation by the RAW264.7 cells in the wells, the media were allowed to contain DMSO at a concentration of 0.1 % or less.
After completion of one hour pre-treatment, lipopolysaccharide (LPS, E. coli serotype 055:B5) was added to activate the cells, which were, then, maintained for 24 hours in a CO2 incubator. As a result of the activation of RAW264.7 cells with LPS, NO was formed. The NO released into the media was in a form of nitrite NO2^- and quantitatively measured using the Griess reagent. A control was treated only with vehicle instead of test compounds.
The inhibitory effects of the test compounds against NO production were determined as the reduction of NO quantity compared with that of the control group.
In general terms: Griess reagent forms a coloured azo dye with nitrite.

The test system of the next data set is rat brain homogenate. Briefly: Inhibition of iron-induced lipid peroxidation (MDA quantification). The class given is biochemical. As to conditions: 100 uM; FeCl2 400 uM, 37 °C, 30 min. The procedure: The rat brain was homogenized in a Krebs buffer (15 mM HEPES, 10 mM glucose, 140 mM NaCl, 3.6 mM KCl, 1.5 mM CaCl2, 1.4 mM KH2PO4, 0.7 mM MgCl2, pH 7.4) and the supernatant separated by centrifugation at 12,000 rpm for 10 min. was used for further experiments. FeCl2 was added to a final concentration of 400 uM in the brain homogenate which was then allowed to stand at 37 °C for 30 min. for the facilitation of oxidation. Each of the test compounds was added at a concentration of 100 uM and vehicle was used as a control.
Iron facilitates the oxidation of the brain homogenate to produce malondialdehyde (MDA), a lipid peroxidation product. Thus, the lipid peroxidation was determined by MDA quantification. The inhibitory effect of the test compounds against the lipid peroxidation was evaluated by calculating MDA reduction rate of the test compounds compared with that of the control group.
Typically, the MDA quantification is achieved by reacting samples with 2-thiobarbituric acid (TBA) and measuring the absorbance at 530 nm. However, this method is unsuitable to treat samples on a large scale because of a boiling step. Thus, in this experiment, N-methyl-2-phenylindole was used instead of TBA. […] Bioxytech^R LPO-586 Kit was used for MDA quantification.

The test system of data set [4] is Rat aortic smooth muscle cells. Briefly: Inhibition of proliferation of vascular smooth muscle cells ([3H]-thymidine incorporation into DNA). The class given is cell-based. As to conditions: [^3H]-thymidine into DNA, angiotensin II (10^-7M) stimulated = 100, 72 hr. The procedure:
Inhibitory effects on cell proliferation was evaluated by measurement of incorporation of [^3H]-thymidine into DNA. Rat aortic smooth muscle cells were grown in 24 well plate for 3 days to near confluence in DMEM containing 10% FBS, then DMEM containing FBS was washed out. Cells were cultured again in DMEM without serum for 48 hr to be quiescent. […] During the last 4 hours of incubation, [^3H]-thymidine (1 uCi/ml) was added. […] The samples were filtered through glass microfiber filter (GF/B. Whatmann) under vacuum. After washing the filters 3 times with 2 ml of an aqueous solution of 5% TCA, the radioactivity incorporated into DNA was counted by Liquid Scintillation Counter (Packard, TRI-CARB, 2100TR), then calculated incorporation % of [^3H]-thymidine.
For orientation: Uptake of a labelled nucleoside into DNA is a usual measure of proliferation.

By pIC50 is commonly meant the negative decadic logarithm of the IC50, by convention in mol/L. In the case of `CC1(C)Oc2ccc(C#N)cc2[C@@H](NC(=NC#N)Nc2ccc(Cl)cc2)[C@@H]1O` [BMS-180448, reference compound], the “Anti-ischemic Activity (in vivo, dogs) (2 mg/kg/40 i.v.) min,i.v.) IZ/AAR (%)” value in data set [1] is given as 38.02%. The “Anti-ischemic Activity (in vivo, rats) (0.3 mg/kg i.v.) IZ/AAR (%)” value in data set [2] is on record as 39.14%. Moreover, the pIC50 in the data set with rat aorta was 5.86.

Usually inhibition stands for how much of the control response was suppressed. Higher therefore signals a response far below the control. A word on the % Inhibition: it is the share of the control response that was lost under treatment. Low values mean a weak effect, high ones a strong effect. `COC(OC)[C@]1(C)Oc2ccc([N+](=O)[O-])cc2[C@@H](NC(=NC#N)Nc2cccc(C(F)(F)F)c2)[C@@H]1O` [Example 7, (2R, 3S, 4R)-N''-cyano-N-(6-nitro-3,4-dihydro-3-hydroxy-2-methyl-2-dimethoxymethyl-2H-benzopyran-4-yl)-N'-(3-trifluoromethylphenyl)guanidine]: in data set [3], the LD50 was more than 1000 mg/kg. In the data set on RAW 264.7 cells, this molecule displayed an inhibition at 100 µM of 88%. For the same molecule, in the data set on rat brain homogenate, the “% Inhibition” value worked out at 70%. Also, the Incorporation % in data set [4] (4320 min) was found to be 37.8%.

Regarding `COC(OC)[C@]1(C)Oc2ccc([N+](=O)[O-])cc2[C@H](NC(=NC#N)NCc2ccccc2)[C@H]1O` [Example 22, (2R, 3R, 4S)-N''-cyano-N (6-nitro-3,4-dihydro-3-hydroxy-2-methyl-2-dimethoxy methyl-2H-benzopyran-4-yl)-N'-benzylguanidine], the LD50 in data set [3] was more than 1000 mg/kg. Further, in data set [4], the Incorporation % was 64.0%.
